Patent publication US8071540B2, “Virus derived antimicrobial peptides” (priority 2007, dated 2011)
Where no end group is shown, it is not given here.

Test system: Burkholderia cepacia
Type: cell-based
Settings: 25 μM peptide, organisms surviving, FIG. 8

RWIRVVQRWCRAIRHIWRRIRQGLRRWLRVV [WLSA-5, RWIRVVQRWCRAIRHIWRRIRQGLRRWLRVV]
killing of B. cepacia genomovars compared with LL37: equal to or better than LL-37 at killing all bacterial strains
